Measurements reported in publication PMC4601019, “Bacillus cereus eﬄux protein BC3310 – a multidrug transporter of the unknown major facilitator family, UMF-2” (Frontiers in Microbiology, 2015).

Molecular target: T1, BC3310 (Bacillus cereus, UniProt Q81B77)
T1 construct: gene BC_3310; full-length in pTTQ18 with C-terminal RGSHis6 tag, expressed in E. coli DH5alpha deltaacrAB; 12 predicted TM helices; migrates at ~30 kDa
Experiment: whole-cell ethidium accumulation assay (fluorescence), E. coli expressing BC3310 vs empty vector
Assay type: cell-based
Conditions: 25 uM ethidium bromide, PBS with 0.4% glucose, pH 7-7.4; CCCP-sensitive efflux

T1 sequence (Q81B77 entry or part of it): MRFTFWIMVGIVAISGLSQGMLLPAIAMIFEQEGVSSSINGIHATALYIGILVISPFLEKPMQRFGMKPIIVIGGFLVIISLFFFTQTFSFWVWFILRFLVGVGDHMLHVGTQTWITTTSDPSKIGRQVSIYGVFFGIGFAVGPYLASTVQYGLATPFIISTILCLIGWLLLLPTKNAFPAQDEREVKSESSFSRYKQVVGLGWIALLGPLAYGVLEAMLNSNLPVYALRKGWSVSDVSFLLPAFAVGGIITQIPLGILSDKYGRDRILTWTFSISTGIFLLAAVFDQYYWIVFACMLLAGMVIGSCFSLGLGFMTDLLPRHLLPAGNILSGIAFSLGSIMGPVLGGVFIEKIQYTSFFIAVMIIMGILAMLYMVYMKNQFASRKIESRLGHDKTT

Structure (SMILES): CC[n+]1c(-c2ccccc2)c2cc(N)ccc2c2ccc(N)cc21 [ethidium bromide]
- whole-cell ethidium accumulation assay (fluorescence), E. coli expressing BC3310: showed less fluorescence compared to the empty vector control (pTTQ18), thereby implying that BC3310 exports
